# Measurements taken from patent US20100179220A1, “METHOD FOR THE TREATMENT OF TINNITUS” (Merck Patent GmbH, priority 2006, published 2010).
# Values joined by “and” are separate entries in the source; they are usually repeats but may differ in a detail not shown here. Identical values can stand only once.
# Tests used:
# [1] = tested on: patients with sensorineural tinnitus; test: randomized double-blind placebo-controlled clinical trial of acamprosate in tinnitus; assay type: in vivo, human; parameters: key to tinnitus scale, Mean / tinnitus scale, Median / tinnitus scale, Minimum / tinnitus scale, Maximum: tinnitus disturbance score, 0 to 10 (0.5 steps allowed)
# Method: We selected 50 patients with tinnitus seen at OTOSUL, Otorrinolaringologia Sul-fluminense, Hospital São Camilo, Volta Redonda, R J, between October 2003 and October 2004. The inclusion criteria were tinnitus of sensorineural etiology, excluding the cases of external and middle ear disease and concomitant temporomandibular joint disorders. Pure tone audiometry, vocal audiometry and immittanciometry were performed in all patients, and we excluded those with conductive and mixed hearing loss and those with tympanogram curve types A-r, A-d, C and B. The audiometer used was AMPLAID A 177 PLUS, and the Immittanciometer was AMPLAID 750. We considered the thresholds up to 25 dB (normal hearing), 26 to 40 dB (mild loss), 41 to 70 dB (moderate loss), 71 to 90 dB (severe loss) and over 90 dB (profound loss).
# The patients were classified according to the following parameters:
# age, gender, continuous or intermittent tinnitus, uni or bilateral tinnitus, tinnitus characteristics (type of associated noise), time of tinnitus, associated symptoms (hypo and hyper loss, dizziness, ear fullness), probable tinnitus etiology, previous use of drugs to treat tinnitus, and baseline tinnitus score, given by the patient, ranging from 0 to 10, according to how much it disturbed the patient
# Patients were asked to score tinnitus from 1 to 10 according to how much they were disturbed by it. We allowed 0.5 scores as well.
# Patients were randomly divided into 2 groups of 25 patients: one group received acamprosate 333 mg, TID, and the other received placebo, TID, both groups for 90 days. All details of the study were clarified to the patients by the assistant physician and they all signed the informed consent term. It was a double-blind study approved by the Medical Ethical Committee, Hospital São Camilo.
# Patients were analyzed at days 30, 60 and 90 after use of the drug and at each visit, the patient scored the tinnitus status, as well as reported side effects.
# The statistical analysis was performed based on the following methods:
# t Student test for independent samples or the Mann-Whitney test to compare quantitative data between the two groups (acamprosate and placebo) chi-square test or Fisher exact test to compare qualitative data, Friedman Variance Analysis to analyze the progression of tinnitus scale (quantitative data) throughout time (four assessments within 3 months) with the treatment with acamprosate and placebo.
# The test of multiple comparisons based on the statistics of Friedman was applied to identify which moments were different. The test of multiple comparisons is a test complementary to Variance Analysis.
# The criterion for determination of significance was adopted as 5%, that is, when p value of the statistical test was smaller or equal to 0.05, meaning there was statistical significance. The statistical analysis was processed by the statistical software SAS System.
# GABA reuptake sites = settings: rats; cited from earlier work
# patients with tinnitus = settings: cited from earlier work; for improvement of tinnitus: literature studies, only baclofen and caroverine double blind placebo-controlled
# [2] = acamprosate 333 mg TID, 90 days, n=23
compound,measurement,setting,value
"CC(=O)NCCCS(=O)(=O)O [acamprosate, calcium acetyl-homotaurinate]","tinnitus scale, Maximum","[1]; Baseline, n=23",10
same,"tinnitus scale, Mean","[1]; Baseline, n=23",6.74
same,"tinnitus scale, Median","[1]; Baseline, n=23",7
same,"tinnitus scale, Minimum","[1]; Baseline, n=23",3
same,"tinnitus scale, Maximum","[1]; Score 30 d, 333 mg TID, n=23",10
same,"tinnitus scale, Mean","[1]; Score 30 d, 333 mg TID, n=23",5.39
same,"tinnitus scale, Median","[1]; Score 30 d, 333 mg TID, n=23",5
same,"tinnitus scale, Minimum","[1]; Score 30 d, 333 mg TID, n=23",2
same,"tinnitus scale, Maximum","[1]; Score 60 d, 333 mg TID, n=23",9
same,"tinnitus scale, Mean","[1]; Score 60 d, 333 mg TID, n=23",3.98
same,"tinnitus scale, Median","[1]; Score 60 d, 333 mg TID, n=23",4
same,"tinnitus scale, Minimum","[1]; Score 60 d, 333 mg TID, n=23",0
same,"tinnitus scale, Maximum","[1]; Score 90 d, 333 mg TID, n=23",10
same,"tinnitus scale, Mean","[1]; Score 90 d, 333 mg TID, n=23",2.87
same,"tinnitus scale, Median","[1]; Score 90 d, 333 mg TID, n=23",2
same,"tinnitus scale, Minimum","[1]; Score 90 d, 333 mg TID, n=23",0
same,worsening in score,"[1]; acamprosate 333 mg TID, 90 days",no worsening in score has been observed
same,severity of observed side effects,"[1]; acamprosate 333 mg TID, 90 days, epigastralgia, choking",mild
same,patients who did not report improvement,[1]; [2],13.04%
same,patients who reported improvement below 50%,[1]; [2],39.13%
same,subjects who reported that tinnitus had disappeared,[1]; [2],13.04%
same,incidence of side effects,"[1]; acamprosate 333 mg TID, 90 days, placebo 20%, p=0.35",12%
same,proportion of improvement at 90 days equal or greater than 50%,"[1]; acamprosate 333 mg TID, 90 days, subjective tinnitus score, placebo 11.1%, p=0.012",47.8% and 47.83%
same,patients who interrupted treatment before the end of assessment,"[1]; acamprosate group of 25, placebo 7",2
same,patients who suspended treatment owing to side effects,"[1]; acamprosate group, 50% of those who interrupted",One
same,variation of tinnitus scale as a result of time (Friedman Variance Analysis),"[1]; baseline, 30, 60, 90 days, 333 mg TID, p<0.0001",significant decrease
same,effect on GABA reuptake sites and GABA transmission,GABA reuptake sites,increases the number of reuptake sites of GABA
NCC(CC(=O)O)c1ccc(Cl)cc1 (stereo not drawn) [baclofen],improvement of tinnitus,patients with tinnitus,about 9.7%
NC(=O)N1c2ccccc2C=Cc2ccccc21 [carbamazepine],"improvement, % of the cases of tinnitus","patients with tinnitus; progressively increasing doses of 50 to 600 mg a day, defined by positive lidocaine test",50%
CCN(CC)CCn1c(=O)c(Cc2ccc(OC)cc2)nc2ccccc21 [caroverine],improvement of tinnitus,patients with tinnitus,63.3%
O=C1CN=C(c2ccccc2Cl)c2cc([N+](=O)[O-])ccc2N1 [clonazepam],improvement of tinnitus,patients with tinnitus,32%
c1cnc(N2CCN(Cc3ccc4c(c3)OCO4)CC2)nc1 [piribedil],improvement of tinnitus,patients with tinnitus,92.6%
COc1ccc(CN2CCNCC2)c(OC)c1OC [trimetazidine],improvement of tinnitus,patients with tinnitus,89%
